In experiment [1] the test system is A375-XP cells (Vemurafenib-resistant). The experiment in a line: Dose-response curves and IC50, PrestoBlue cell viability, 72 h. It is filed as cell-based, human. Particulars: n.e. = did not suppress growth below 50% in the tested concentration range, read-out: Half-maximal inhibitory concentration value (IC50), Mean.
For experiment [2], the system named is 501Mel-GP cells (Dabrafenib-resistant). In words: Kinase inhibitor library screening, PrestoBlue cell viability, 1 or 10 μM, 72 h. The conditions noted are these: for viability at 1 µM / viability at 10 µM: Homo sapiens; for viability at 1 µM: read-out: cell viability, 501Mel GP, 1μΜ; for viability at 10 µM: read-out: cell viability, 501Mel GP, 10μΜ.
The subject of another experiment is IGR37 cells (parental). The description is as above. The conditions noted are these: for viability at 1 µM / viability at 10 µM: Homo sapiens, IGR-37, 72 h; for viability at 1 µM: read-out: cell viability, IGR37 Parental, 1μΜ; for viability at 10 µM: read-out: cell viability, IGR37 Parental, 10μΜ.
The subject of experiment [3] is A375-GP cells (Dabrafenib-resistant). The description is as above. Particulars: for viability at 1 µM / viability at 10 µM: Homo sapiens, A-375, 72 h; for viability at 1 µM: read-out: cell viability, A375 GP, 1μΜ; for viability at 10 µM: read-out: cell viability, A375 GP, 10μΜ; for cell viability (kinase inhibitor library screening): in %.
The next experiment has as its system 501Mel cells (parental). Described as above. Particulars: for viability at 1 µM / viability at 10 µM: Homo sapiens; for viability at 1 µM: read-out: cell viability, 501Mel Parental, 1μΜ; for viability at 10 µM: read-out: cell viability, 501Mel Parental, 10μΜ. In outline:
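Parental cells and Vemurafenib-resistant (XP) or Dabrafenib-resistant (GP) derivatives were treated with library kinase inhibitors at 1 and 10 μM for 72 h. Viability measured by PrestoBlue and expressed as % of untreated cells, at least in duplicate.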

Experiment [4] deals with A375-XP cells (Vemurafenib-resistant). The experiment is described as above. The conditions noted are these: for viability at 1 µM / viability at 10 µM: Homo sapiens, A-375, 72 h; for viability at 1 µM: read-out: cell viability, A375 XP, 1μΜ; for viability at 10 µM: read-out: cell viability, A375 XP, 10μΜ.
The test system of experiment [5] is 501Mel-XP cells (Vemurafenib-resistant). The description is as above. Particulars: for viability at 1 µM / viability at 10 µM: Homo sapiens; for viability at 1 µM: read-out: cell viability, 501Mel XP, 1μΜ; for viability at 10 µM: read-out: cell viability, 501Mel XP, 10μΜ.
Experiment [6] concerns IGR37-GP cells (Dabrafenib-resistant). The experiment is described as above. Particulars: for viability at 1 µM / viability at 10 µM: Homo sapiens, IGR-37, 72 h; for viability at 1 µM: read-out: cell viability, IGR37 GP, 1μΜ; for viability at 10 µM: read-out: cell viability, IGR37 GP, 10μΜ.
Experiment [7] has as its system IGR37-XP cells (Vemurafenib-resistant). The description is as above. The conditions noted are these: for viability at 1 µM / viability at 10 µM: Homo sapiens, IGR-37, 72 h; for viability at 1 µM: read-out: cell viability, IGR37 XP, 1μΜ; for viability at 10 µM: read-out: cell viability, IGR37 XP, 10μΜ.
In experiment [8] the test system is A375 cells (parental). The description is as above. Particulars: for viability at 1 µM / viability at 10 µM: Homo sapiens, A-375, 72 h; for viability at 1 µM: read-out: cell viability, A375 Parental, 1μΜ; for viability at 10 µM: read-out: cell viability, A375 Parental, 10μΜ; for cell viability (kinase inhibitor library screening): in %.
Experiment [9] concerns A375 cells (parental). The experiment in a line: Dose-response curves and IC50, PrestoBlue cell viability, 72 h. It is filed as cell-based, human. Particulars: read-out: Half-maximal inhibitory concentration value (IC50), Mean.
The test system of the next experiment is A375 cells. The experiment in a line: Synergy determination with the Chou-Talalay method (CompuSyn), cell viability 72 h. In kind it is cell-based, human. The conditions noted are these: 72 h cell viability, Chou-Talalay / Synergyfinder. The protocol: The Chou-Talalay method to determine possible synergistic effects of selected kinase inhibitor combinations was used as described in [19]. […] Cells were treated with either single inhibitors or combinations thereof at indicated amounts in technical triplicates. The amounts were pre-determined from each inhibitor’s IC50 value and inhibitors were assayed in a defined dilution series and at constant ratio when combined. […] Combination Index (CI) values showing either synergy (< 1) or antagonism (> 1) were calculated with the CompuSyn software (ComboSyn, Inc).

In experiment [10] the test system is A375-GP cells (Dabrafenib-resistant). The experiment in a line: Dose-response curves and IC50, PrestoBlue cell viability, 72 h. It is filed as cell-based, human. The conditions noted are these: n.e. = did not suppress growth below 50% in the tested concentration range, read-out: Half-maximal inhibitory concentration value (IC50), Mean.
Setting [11] is: n.e. = did not suppress growth below 50% in the tested concentration range.
Where [12] appears, read: Homo sapiens, A-375, n.e. = did not suppress growth below 50% in the tested concentration range.

From paper PMC6364417, “Kinase inhibitor library screening identifies synergistic drug combinations effective in sensitive and resistant melanoma cells” (Journal of Experimental & Clinical Cancer Research : CR, 2019) come the findings set out here.

Like-named read-outs stand apart in the source and are kept apart here.

As usually defined, the viability is a read-out of living cells in per cent, often relative to untreated cells.

For `Cc1ccc([N+](=O)[O-])cc1S(=O)(=O)N(C)/N=C/c1cnc2ccc(Br)cn12` [PIK-75, reference compound], the results for the IC50 (in [1]; with A375 cells (parental) [9] (setting [11]); in [10]) were 53 nM, 55 nM and 45 nM, respectively. Moreover, the “Cell viability in kinase inhibitor library screening, 501Mel GP, 1μΜ” value in experiment [2] (501Mel GP, 1μΜ, 72 h, in %) is recorded as 0.164. Besides, in experiment [2] (501Mel GP, 10μΜ, 72 h, in %), the “Cell viability in kinase inhibitor library screening, 501Mel GP, 10μΜ” value turned out to be 0.3. Moreover, the “Cell viability in kinase inhibitor library screening, IGR37 Parental, 1μΜ” value in the experiment on IGR37 cells (parental) (IGR37 Parental, 1μΜ, 72 h, in %) came to 1.2. Also, the “Cell viability in kinase inhibitor library screening, IGR37 Parental, 10μΜ” value with IGR37 cells (parental) (IGR37 Parental, 10μΜ, 72 h, in %) was found to be 0.6. Also, in experiment [3] (A375 GP, 1μΜ, 72 h), the “Cell viability in kinase inhibitor library screening, A375 GP, 1μΜ” value stood at 4.0. Moreover, the “Cell viability in kinase inhibitor library screening, A375 GP, 10μΜ” value in experiment [3] (A375 GP, 10μΜ, 72 h) is 1.2. The “Cell viability in kinase inhibitor library screening, 501Mel Parental, 1μΜ” value with 501Mel cells (parental) (501Mel Parental, 1μΜ, 72 h, in %) was 0.758. Also, the “Cell viability in kinase inhibitor library screening, 501Mel Parental, 10μΜ” value in the experiment with 501Mel cells (parental) (501Mel Parental, 10μΜ, 72 h, in %) is listed as 0.0735. Besides, in experiment [4] (A375 XP, 1μΜ, 72 h), the “Cell viability in kinase inhibitor library screening, A375 XP, 1μΜ” value is recorded as 5.1. Further, in experiment [4] (A375 XP, 10μΜ, 72 h), the “Cell viability in kinase inhibitor library screening, A375 XP, 10μΜ” value is 2.3. Moreover, the “Cell viability in kinase inhibitor library screening, 501Mel XP, 1μΜ” value in experiment [5] (501Mel XP, 1μΜ, 72 h, in %) is -0.0746. Moreover, the “Cell viability in kinase inhibitor library screening, 501Mel XP, 10μΜ” value in experiment [5] (501Mel XP, 10μΜ, 72 h, in %) is recorded as -0.125. Besides, the Cell viability in kinase inhibitor library screening, IGR37 GP, 10μΜ in experiment [6] (IGR37 GP, 10μΜ, 72 h) was 1.1%. The “Cell viability in kinase inhibitor library screening, IGR37 GP, 1μΜ” value in experiment [6] (IGR37 GP, 1μΜ, 72 h, in %) worked out at 1.7. For the same compound, the Cell viability in kinase inhibitor library screening, IGR37 XP, 10μΜ in experiment [7] (IGR37 XP, 10μΜ, 72 h) turned out to be 0.7%. Further, in [7] (IGR37 XP, 1μΜ, 72 h, in %), the “Cell viability in kinase inhibitor library screening, IGR37 XP, 1μΜ” value amounted to 1.2. The “Cell viability in kinase inhibitor library screening, A375 Parental, 10μΜ” value with A375 cells (parental) [8] (A375 Parental, 10μΜ, 72 h) worked out at 1.8. Further, the “Cell viability in kinase inhibitor library screening, A375 Parental, 1μΜ” value in the experiment on A375 cells (parental) [8] (A375 Parental, 1μΜ, 72 h) is listed as 4.1. In the experiment on A375 cells, the “synergistic effects with the BRAF inhibitors Vemurafenib and/or Dabrafenib (in words)” value is recorded as “synergistic effects only with Dabrafenib”.

In the case of `O=C(Nc1cc(C(F)(F)F)cc(C(F)(F)F)c1)c1cc(Cl)ccc1O` [IMD 0354, reference compound], the results for the IC50 (in experiment [1] (Homo sapiens); with A375 cells (parental) [9] (setting [12]); in experiment [10] (Homo sapiens)) were 1000 nM, 640 nM and 738 nM, respectively. Besides, the viability at 1 µM in experiment [2] (72 h) turned out to be 25.5%; in the experiment on IGR37 cells (parental), 59.5%; in experiment [3], 25.5%; in the experiment on 501Mel cells (parental) (72 h), 34.2%; in experiment [4], 29.7%; in experiment [5] (72 h), 26%. Besides, the viability at 1 µM in experiment [6] amounted to 46.7%; in experiment [7], 41.2%; with A375 cells (parental) [8], 23.1%. For the same compound, the viability at 10 µM in experiment [2] (72 h) is -0.276%; in the experiment with IGR37 cells (parental) it was 2.8%; in experiment [3] it was 8.1%; with 501Mel cells (parental) (72 h) it was -0.0333%; in experiment [4], 4.8%; in experiment [5] (72 h), -0.369%. Besides, the viability at 10 µM came out at 15.4% in experiment [6], 4.1% in experiment [7] and 6.5% in the experiment with A375 cells (parental) [8]. Also, the “synergistic effects with the BRAF inhibitors Vemurafenib and/or Dabrafenib (in words)” value in the experiment with A375 cells is recorded as “did not act synergistically”.

Turning to `O=C(Cc1ccc(-c2ccc(OCCN3CCOCC3)cc2)cn1)NCc1ccccc1` [KX2-391, reference compound], the figures for the IC50 (in experiment [1]; with A375 cells (parental) [9] (setting [11]); in experiment [10]) were 46 nM, 42 nM and 37 nM, respectively. Besides, the “cell viability (kinase inhibitor library screening)” value in experiment [2] (501Mel GP, 1μΜ, in %) is on record as 15.9; in experiment [2] (501Mel GP, 10μΜ, in %) it was 19.8; in the experiment with IGR37 cells (parental) (IGR37 Parental, 1μΜ, in %), 11.7; in the experiment with IGR37 cells (parental) (IGR37 Parental, 10μΜ, in %) it was 19.5; in experiment [3] (A375 GP, 1μΜ), 22.8; in [3] (A375 GP, 10μΜ), 19.7. For the same compound, the “cell viability (kinase inhibitor library screening)” value with 501Mel cells (parental) (501Mel Parental, 1μΜ, in %) is listed as 16.9; with 501Mel cells (parental) (501Mel Parental, 10μΜ, in %), 24.4; in experiment [4] (A375 XP, 1μΜ, in %), 21.2; in experiment [5] (501Mel XP, 1μΜ, in %), 9.9; in [5] (501Mel XP, 10μΜ, in %), 14.1; in [6] (IGR37 GP, 1μΜ, in %), 70.8. Further, the “cell viability (kinase inhibitor library screening)” value is given as 68.8 in experiment [6] (IGR37 GP, 10μΜ, in %); 45.0 in experiment [7] (IGR37 XP, 1μΜ, in %); 36.6 in [7] (IGR37 XP, 10μΜ, in %); 20.3 in the experiment on A375 cells (parental) [8] (A375 Parental, 1μΜ); 16.5 with A375 cells (parental) [8] (A375 Parental, 10μΜ). For the same compound, the “synergistic effects with the BRAF inhibitors Vemurafenib and/or Dabrafenib (in words)” value in the experiment on A375 cells is “did not act synergistically”.

Regarding `Cc1cc(C(=O)NOCCO)c(Nc2ccc(I)cc2F)n(C)c1=O` [AZD8330, reference compound], the viability at 1 µM in [2] (72 h) is 86.3%; in the experiment on IGR37 cells (parental), 33%; in experiment [3], 17.9%; with 501Mel cells (parental) (72 h) it was 48.9%; in experiment [4] it was 10.5%; in experiment [5] (72 h), 69.7%. The viability at 1 µM in [6] turned out to be 57.5%; in [7], 45.7%; in the experiment on A375 cells (parental) [8], 17.3%. The viability at 10 µM in experiment [2] (72 h) is 74.6%; in the experiment with IGR37 cells (parental) it was 34%; in experiment [3], 13.3%; in the experiment on 501Mel cells (parental) (72 h), 52.5%; in experiment [4] it was 12.1%; in experiment [5] (72 h), 56.7%. Further, the values for the viability at 10 µM (in [6]; in [7]; in the experiment with A375 cells (parental) [8]) were 52%, 19% and 17.7%, respectively. The IC50 in the experiment on A375 cells (parental) [9] (setting [12]) amounted to 1.8 nM; in experiment [10] (Homo sapiens), 3.2 nM. Further, the “synergistic effects with the BRAF inhibitors Vemurafenib and/or Dabrafenib (in words)” value in the experiment with A375 cells was “synergistic effects at low concentrations”.

As for `CN1CC[C@H](c2c(O)cc(O)c3c(=O)cc(-c4ccccc4Cl)oc23)[C@H](O)C1.Cl` [Flavopiridol HCL], the IC50 in [1] was found to be 136 nM; with A375 cells (parental) [9] (setting [11]), 112 nM; in [10], 123 nM. In addition, the “synergistic effects with the BRAF inhibitors Vemurafenib and/or Dabrafenib (in words)” value in the experiment with A375 cells is listed as “did not act synergistically”.
